From paper PMC8167799, “Discovery and Characterization of the Biflavones From Ginkgo biloba as Highly Specific and Potent Inhibitors Against Human Carboxylesterase 2” (Frontiers in Pharmacology, 2021)

Molecular target: T1, CES2 (Homo sapiens, UniProt O00748)
T1 construct: tissue Bioreclamation IVT; […]
T1 sequence (O00748 27-559): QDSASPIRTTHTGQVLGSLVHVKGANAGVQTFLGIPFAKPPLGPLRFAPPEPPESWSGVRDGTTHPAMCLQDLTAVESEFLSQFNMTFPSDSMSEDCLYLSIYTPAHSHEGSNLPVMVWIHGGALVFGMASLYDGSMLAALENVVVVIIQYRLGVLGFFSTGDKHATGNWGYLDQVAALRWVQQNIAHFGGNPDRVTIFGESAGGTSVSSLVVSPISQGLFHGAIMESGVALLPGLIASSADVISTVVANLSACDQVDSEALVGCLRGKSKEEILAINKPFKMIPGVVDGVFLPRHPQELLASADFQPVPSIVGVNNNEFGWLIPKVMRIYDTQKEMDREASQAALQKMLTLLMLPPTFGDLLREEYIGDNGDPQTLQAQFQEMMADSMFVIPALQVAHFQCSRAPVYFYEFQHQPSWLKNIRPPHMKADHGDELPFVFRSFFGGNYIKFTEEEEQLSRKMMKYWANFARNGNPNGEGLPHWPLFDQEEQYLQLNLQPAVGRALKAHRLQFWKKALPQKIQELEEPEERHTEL
Assay: Inhibition of CES2-catalyzed FD hydrolysis in HLMs
Type: biochemical
Details: FD as probe substrate, logarithm of IC50 in nM
Method: The incubation system contains following components (total volume 200 μL): 2 μL DMSO/inhibitor, 2 μL HLMs (2 μg/ml, final concentration), […] buffer PBS (pH = =7.4).

Quinatic acid
CES2 lg (IC50/nM): 3.72 ± 0.10
